According to ChEMBL document CHEMBL6127052, “Discovery of membrane-targeting amphiphilic honokiol derivatives containing an oxazolethione moiety to combat methicillin-resistant Staphylococcus aureus (MRSA) infections” (Eur J Med Chem, 2024):

system: Staphylococcus aureus; experiment: Antibacterial activity against methicillin-resistant Staphylococcus aureus clinical isolate M12 by CLSI based micro-broth dilution method; type: functional

Going from C=CCc1cc(-c2ccc(OCCC[N+](C)(C)CC(=O)NCCCC)c(CC=C)c2)c2oc(=S)n(Cc3ccccc3)c2c1.[Br-] to C=CCc1cc(-c2ccc(OCCC[N+](C)(C)CC(=O)NCCCC)c(CC=C)c2)c2oc(=S)n(Cc3ccc(Cl)c(F)c3)c2c1.[Br-], the MIC rises from 4 µg/mL to 8 µg/mL (2-fold).

system: Staphylococcus aureus; experiment: Antibacterial activity against methicillin-resistant Staphylococcus aureus clinical isolate M11 by CLSI based micro-broth dilution method; type: functional

First: C=CCc1cc(-c2ccc(OCCC[N+](C)(C)CC(=O)NCCCC)c(CC=C)c2)c2oc(=S)n(Cc3ccccc3)c2c1.[Br-]
Second: C=CCc1cc(-c2ccc(OCCC[N+](C)(C)CC(=O)NCCCC)c(CC=C)c2)c2oc(=S)n(Cc3ccc(Cl)c(F)c3)c2c1.[Br-]
The MIC of the first is 2-fold lower: 4 µg/mL for the first, 8 µg/mL for the second.

system: Staphylococcus aureus; experiment: Antibacterial activity against Staphylococcus aureus ATCC 29213 by CLSI based micro-broth dilution method; type: functional

Compared with C=CCc1cc(-c2ccc(OCCC[N+](C)(C)CC(=O)NCCCC)c(CC=C)c2)c2oc(=S)n(Cc3ccccc3)c2c1.[Br-], C=CCc1cc(-c2ccc(OCCC[N+](C)(C)CC(=O)NCCCC)c(CC=C)c2)c2oc(=S)n(Cc3ccc(Cl)c(F)c3)c2c1.[Br-] is 4-fold higher in MIC: 8 µg/mL for the first, 32 µg/mL for the second.

system: not listed separately; experiment: Hemolytic activity in sheep erythrocytes incubated for 1 hr by absorbance based assay; type: toxicity, cell-based, Ovis aries, Erythrocyte

C=CCc1cc(-c2ccc(OCCC[N+](C)(C)CC(=O)NCCCC)c(CC=C)c2)c2oc(=S)n(Cc3ccccc3)c2c1.[Br-] and C=CCc1cc(-c2ccc(OCCC[N+](C)(C)CC(=O)NCCCC)c(CC=C)c2)c2oc(=S)n(Cc3ccc(Cl)c(F)c3)c2c1.[Br-] cannot be ordered by HC50 at 1 h: greater than 160 µg/mL for the first, greater than 160 µg/mL for the second.

system: Staphylococcus aureus; experiment: Antibacterial activity against methicillin-resistant Staphylococcus aureus clinical isolate M17 by CLSI based micro-broth dilution method; type: functional

First: C=CCc1cc(-c2ccc(OCCC[N+](C)(C)CC(=O)NCCCC)c(CC=C)c2)c2oc(=S)n(Cc3ccccc3)c2c1.[Br-]
Second: C=CCc1cc(-c2ccc(OCCC[N+](C)(C)CC(=O)NCCCC)c(CC=C)c2)c2oc(=S)n(Cc3ccc(Cl)c(F)c3)c2c1.[Br-]
The MIC of the first is 16-fold lower: 8 µg/mL for the first, 128 µg/mL for the second.

system: not listed separately; experiment: Selectivity index, ratio of HC50 for hemolytic activity in sheep erythrocytes to MIC for antibacterial activity against Staphylococcus aureus ATCC 29213; type: toxicity, cell-based, RBC

C=CCc1cc(-c2ccc(OCCC[N+](C)(C)CC(=O)NCCCC)c(CC=C)c2)c2oc(=S)n(Cc3ccccc3)c2c1.[Br-] and C=CCc1cc(-c2ccc(OCCC[N+](C)(C)CC(=O)NCCCC)c(CC=C)c2)c2oc(=S)n(Cc3ccc(Cl)c(F)c3)c2c1.[Br-] cannot be ordered by selectivity ratio: greater than 20 for the first, greater than 5 for the second.

system: Staphylococcus aureus; experiment: Antibacterial activity against methicillin-resistant Staphylococcus aureus clinical isolate M22 by CLSI based micro-broth dilution method; type: functional

Compared with C=CCc1cc(-c2ccc(OCCC[N+](C)(C)CC(=O)NCCCC)c(CC=C)c2)c2oc(=S)n(Cc3ccccc3)c2c1.[Br-], C=CCc1cc(-c2ccc(OCCC[N+](C)(C)CC(=O)NCCCC)c(CC=C)c2)c2oc(=S)n(Cc3ccc(Cl)c(F)c3)c2c1.[Br-] is 16-fold higher in MIC: 4 µg/mL for the first, 64 µg/mL for the second.

system: Staphylococcus aureus; experiment: Antibacterial activity against methicillin-resistant Staphylococcus aureus clinical isolate M23 by CLSI based micro-broth dilution method; type: functional

Compared with C=CCc1cc(-c2ccc(OCCC[N+](C)(C)CC(=O)NCCCC)c(CC=C)c2)c2oc(=S)n(Cc3ccccc3)c2c1.[Br-], C=CCc1cc(-c2ccc(OCCC[N+](C)(C)CC(=O)NCCCC)c(CC=C)c2)c2oc(=S)n(Cc3ccc(Cl)c(F)c3)c2c1.[Br-] is 2-fold higher in MIC: 4 µg/mL for the first, 8 µg/mL for the second.

system: Staphylococcus aureus; experiment: Antibacterial activity against methicillin-resistant Staphylococcus aureus clinical isolate M20 by CLSI based micro-broth dilution method; type: functional

C=CCc1cc(-c2ccc(OCCC[N+](C)(C)CC(=O)NCCCC)c(CC=C)c2)c2oc(=S)n(Cc3ccccc3)c2c1.[Br-] and C=CCc1cc(-c2ccc(OCCC[N+](C)(C)CC(=O)NCCCC)c(CC=C)c2)c2oc(=S)n(Cc3ccc(Cl)c(F)c3)c2c1.[Br-] are the same in MIC: 8 µg/mL for the first, 8 µg/mL for the second.

system: Staphylococcus aureus; experiment: Antibacterial activity against methicillin-resistant Staphylococcus aureus N315 by CLSI based micro-broth dilution method; type: functional

First: C=CCc1cc(-c2ccc(OCCC[N+](C)(C)CC(=O)NCCCC)c(CC=C)c2)c2oc(=S)n(Cc3ccccc3)c2c1.[Br-]
Second: C=CCc1cc(-c2ccc(OCCC[N+](C)(C)CC(=O)NCCCC)c(CC=C)c2)c2oc(=S)n(Cc3ccc(Cl)c(F)c3)c2c1.[Br-]
The MIC of the first is 4-fold lower: 8 µg/mL for the first, 32 µg/mL for the second.

system: Staphylococcus aureus; experiment: Antibacterial activity against methicillin-resistant Staphylococcus aureus clinical isolate M16 by CLSI based micro-broth dilution method; type: functional

Compared with C=CCc1cc(-c2ccc(OCCC[N+](C)(C)CC(=O)NCCCC)c(CC=C)c2)c2oc(=S)n(Cc3ccccc3)c2c1.[Br-], C=CCc1cc(-c2ccc(OCCC[N+](C)(C)CC(=O)NCCCC)c(CC=C)c2)c2oc(=S)n(Cc3ccc(Cl)c(F)c3)c2c1.[Br-] is 2-fold higher in MIC: 4 µg/mL for the first, 8 µg/mL for the second.

system: Staphylococcus aureus; experiment: Antibacterial activity against methicillin-resistant Staphylococcus aureus clinical isolate M13 by CLSI based micro-broth dilution method; type: functional

Compared with C=CCc1cc(-c2ccc(OCCC[N+](C)(C)CC(=O)NCCCC)c(CC=C)c2)c2oc(=S)n(Cc3ccccc3)c2c1.[Br-], C=CCc1cc(-c2ccc(OCCC[N+](C)(C)CC(=O)NCCCC)c(CC=C)c2)c2oc(=S)n(Cc3ccc(Cl)c(F)c3)c2c1.[Br-] is 4-fold higher in MIC: 4 µg/mL for the first, 16 µg/mL for the second.

system: Staphylococcus aureus; experiment: Antibacterial activity against methicillin-resistant Staphylococcus aureus clinical isolate M14 by CLSI based micro-broth dilution method; type: functional

Going from C=CCc1cc(-c2ccc(OCCC[N+](C)(C)CC(=O)NCCCC)c(CC=C)c2)c2oc(=S)n(Cc3ccccc3)c2c1.[Br-] to C=CCc1cc(-c2ccc(OCCC[N+](C)(C)CC(=O)NCCCC)c(CC=C)c2)c2oc(=S)n(Cc3ccc(Cl)c(F)c3)c2c1.[Br-], the MIC rises from 4 µg/mL to 16 µg/mL (4-fold).

system: Escherichia coli; experiment: Antibacterial activity against Escherichia coli ATCC 25922 by CLSI based micro-broth dilution method; type: functional

C=CCc1cc(-c2ccc(OCCC[N+](C)(C)CC(=O)NCCCC)c(CC=C)c2)c2oc(=S)n(Cc3ccccc3)c2c1.[Br-] and C=CCc1cc(-c2ccc(OCCC[N+](C)(C)CC(=O)NCCCC)c(CC=C)c2)c2oc(=S)n(Cc3ccc(Cl)c(F)c3)c2c1.[Br-] cannot be ordered by MIC: greater than 128 µg/mL for the first, greater than 128 µg/mL for the second.

system: Staphylococcus aureus; experiment: Antibacterial activity against methicillin-resistant Staphylococcus aureus clinical isolate M21 by CLSI based micro-broth dilution method; type: functional

Compared with C=CCc1cc(-c2ccc(OCCC[N+](C)(C)CC(=O)NCCCC)c(CC=C)c2)c2oc(=S)n(Cc3ccccc3)c2c1.[Br-], C=CCc1cc(-c2ccc(OCCC[N+](C)(C)CC(=O)NCCCC)c(CC=C)c2)c2oc(=S)n(Cc3ccc(Cl)c(F)c3)c2c1.[Br-] is 2-fold higher in MIC: 4 µg/mL for the first, 8 µg/mL for the second.
